According to patent publication US20210045385A1, “PYRIDAZINONE-SUBSTITUTED KETOXIMES AS HERBICIDES” (FMC Corporation, priority 2018, published 2021):

Legend:
Format in all cases: in vivo
[1] = tested on: duck salad (Heteranthera limosa); experiment: Test D flooded paddy test, visual plant response rating; settings: 250 g ai/ha, scale 0 to 100 (0 no effect, 100 complete control), 13 to 15 d
Outline: (§1)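 Plants were grown to the 2-leaf stage, pots flooded to 3 cm above soil, and compound applied directly into the paddy water, with the depth held throughout. After 13 to 15 d in a greenhouse, response was rated visually against untreated controls on a 0–100 scale (0 no effect, 100 complete control).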

[2] = tested on: barnyardgrass (Echinochloa crus-galli); experiment: as above; settings: 250 g ai/ha, scale 0 to 100 (0 no effect, 100 complete control), 13 to 15 d
Outline: as §1

[3] = tested on: rice (Oryza sativa); experiment: as above; settings: 250 g ai/ha, scale 0 to 100 (0 no effect, 100 complete control), 13 to 15 d
Outline: as §1

[4] = tested on: sedge umbrella (small-flower umbrella sedge, Cyperus difformis); experiment: as above; settings: 250 g ai/ha, scale 0 to 100 (0 no effect, 100 complete control), 13 to 15 d
Outline: as §1

[5] = tested on: foxtail, giant (giant foxtail, Setaria faberi); experiment: Test C postemergence, visual plant response rating
Outline: (§2)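 Compounds in a non-phytotoxic solvent with surfactant were applied as a directed soil spray preemergence or to 2–10 cm, one- to two-leaf plants postemergence, in loam–sand soil. After about 10 d in a greenhouse, injury was visually rated against untreated controls on a 0–100 scale (100 = complete control).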

[6] = tested on: barnyardgrass (Echinochloa crus-galli); experiment: Test C postemergence, visual plant response rating
Outline: as §2

[7] = tested on: pigweed (Amaranthus retroflexus); experiment: Test C postemergence, visual plant response rating
Outline: as §2

[8] = tested on: ragweed (common ragweed, Ambrosia artemisiifolia); experiment: Test C postemergence, visual plant response rating
Outline: as §2

[9] = tested on: blackgrass (Alopecurus myosuroides); experiment: Test C postemergence, visual plant response rating
Outline: as §2

[10] = tested on: Italian ryegrass (Lolium mutiflorum); experiment: Test C postemergence, visual plant response rating
Outline: as §2

[11] = tested on: wheat (Triticum aestivum); experiment: Test C postemergence, visual plant response rating
Outline: as §2

[12] = tested on: galium (catchweed bedstraw, Galium aparine); experiment: Test C postemergence, visual plant response rating
Outline: as §2

[13] = tested on: corn (Zea mays); experiment: Test C postemergence, visual plant response rating
Outline: as §2

[14] = tested on: kochia (Bassia scoparia); experiment: Test C postemergence, visual plant response rating
Outline: as §2

[15] = tested on: foxtail, giant (giant foxtail, Setaria faberi); experiment: Test C preemergence, visual plant response rating; settings: Test C, 0 is no effect, 100 is complete control
Outline: as §2

[16] = tested on: barnyardgrass (Echinochloa crus-galli); experiment: Test C preemergence, visual plant response rating; settings: Test C, 0 is no effect, 100 is complete control
Outline: as §2

[17] = tested on: pigweed (Amaranthus retroflexus); experiment: Test C preemergence, visual plant response rating; settings: Test C, 0 is no effect, 100 is complete control
Outline: as §2

[18] = tested on: ragweed (common ragweed, Ambrosia artemisiifolia); experiment: Test C preemergence, visual plant response rating; settings: Test C, 0 is no effect, 100 is complete control
Outline: as §2

[19] = tested on: Italian ryegrass (Lolium mutiflorum); experiment: Test C preemergence, visual plant response rating; settings: Test C, 0 is no effect, 100 is complete control
Outline: as §2

[20] = tested on: kochia (Bassia scoparia); experiment: Test C preemergence, visual plant response rating; settings: Test C, 0 is no effect, 100 is complete control
Outline: as §2

[21] = Test C, postemergence, 125 g ai/ha

| SMILES | Plant response rating, Ducksalad (Flood) [1] | Plant response rating, Barnyardgrass (Flood) [2] | Plant response rating, Rice (Flood) [3] | Plant response rating, Sedge, Umbrella (Flood) [4] | Foxtail, Giant plant response rating (0 to 100 scale) ([5]; Postemergence, 31 g ai/ha) | Foxtail, Giant plant response rating (0 to 100 scale) [5, 21] | Barnyardgrass plant response rating (0 to 100 scale) ([6]; Postemergence, 31 g ai/ha) | Barnyardgrass plant response rating (0 to 100 scale) [6, 21] | Pigweed plant response rating (0 to 100 scale) ([7]; Postemergence, 31 g ai/ha) | Pigweed plant response rating (0 to 100 scale) [7, 21] | Ragweed plant response rating (0 to 100 scale) ([8]; Postemergence, 31 g ai/ha) | Ragweed plant response rating (0 to 100 scale) [8, 21] | Blackgrass plant response rating (0 to 100 scale) ([9]; Postemergence, 31 g ai/ha) | Blackgrass plant response rating (0 to 100 scale) [9, 21] | Ryegrass, Italian plant response rating (0 to 100 scale) ([10]; Postemergence, 31 g ai/ha) | Ryegrass, Italian plant response rating (0 to 100 scale) [10, 21] | Wheat plant response rating (0 to 100 scale) ([11]; Postemergence, 31 g ai/ha) | Wheat plant response rating (0 to 100 scale) [11, 21] | Galium plant response rating (0 to 100 scale) ([12]; Postemergence, 31 g ai/ha) | Galium plant response rating (0 to 100 scale) [12, 21] | other results |
| --- | --- | --- | --- | --- | --- | --- | --- | --- | --- | --- | --- | --- | --- | --- | --- | --- | --- | --- | --- | --- | --- |
| C#CCO/N=C(/c1c(O)c(C)nn(C)c1=O)c1cc(Cl)cc2ccccc12 [Compound 192] | 70 | 50 | 0 | 70 | 70 | 80 | 80 | 90 | 50 | 80 | 80 | 90 | 40 | 70 | 20 | 70 | 0 | 50 | 80 | 100 | Corn plant response rating (0 to 100 scale) ([13]; Postemergence, 31 g ai/ha): 20; Corn plant response rating (0 to 100 scale) [13, 21]: 30; Kochia plant response rating (0 to 100 scale) ([14]; Postemergence, 31 g ai/ha): 30; Kochia plant response rating (0 to 100 scale) [14, 21]: 60; Foxtail, Giant plant response rating (0 to 100 scale) ([15]; 31 g ai/ha): 60; Foxtail, Giant plant response rating (0 to 100 scale) ([15]; 125 g ai/ha): 90; Barnyardgrass plant response rating (0 to 100 scale) ([16]; 31 g ai/ha): 30; Barnyardgrass plant response rating (0 to 100 scale) ([16]; 125 g ai/ha): 90; Pigweed plant response rating (0 to 100 scale) ([17]; 31 g ai/ha): 40; Pigweed plant response rating (0 to 100 scale) ([17]; 125 g ai/ha): 100; Ragweed plant response rating (0 to 100 scale) ([18]; 31 g ai/ha): 30; Ragweed plant response rating (0 to 100 scale) ([18]; 125 g ai/ha): 70; Ryegrass, Italian plant response rating (0 to 100 scale) ([19]; 31 g ai/ha): 10; Ryegrass, Italian plant response rating (0 to 100 scale) ([19]; 125 g ai/ha): 70; Kochia plant response rating (0 to 100 scale) ([20]; 31 g ai/ha): 0; Kochia plant response rating (0 to 100 scale) ([20]; 125 g ai/ha): 20 |
| CO/N=C(\c1cc(F)cc(C)c1F)c1c(O)c(C)nn(C)c1=O [Compound 193] | 0 | 0 | 0 | 0 | 40 | 50 | 20 | 50 | 40 | 80 | 70 | 70 | 20 | 50 | 40 | 70 | 0 | 0 | 80 | 90 | Corn plant response rating (0 to 100 scale) ([13]; Postemergence, 31 g ai/ha): 0; Corn plant response rating (0 to 100 scale) [13, 21]: 10; Kochia plant response rating (0 to 100 scale) ([14]; Postemergence, 31 g ai/ha): 60; Kochia plant response rating (0 to 100 scale) [14, 21]: 70; Foxtail, Giant plant response rating (0 to 100 scale) ([15]; 31 g ai/ha): 30; Foxtail, Giant plant response rating (0 to 100 scale) ([15]; 125 g ai/ha): 80; Barnyardgrass plant response rating (0 to 100 scale) ([16]; 31 g ai/ha): 30; Barnyardgrass plant response rating (0 to 100 scale) ([16]; 125 g ai/ha): 60; Pigweed plant response rating (0 to 100 scale) ([17]; 31 g ai/ha): 50; Pigweed plant response rating (0 to 100 scale) ([17]; 125 g ai/ha): 90; Ragweed plant response rating (0 to 100 scale) ([18]; 31 g ai/ha): 30; Ragweed plant response rating (0 to 100 scale) ([18]; 125 g ai/ha): 60; Ryegrass, Italian plant response rating (0 to 100 scale) ([19]; 31 g ai/ha): 30; Ryegrass, Italian plant response rating (0 to 100 scale) ([19]; 125 g ai/ha): 80; Kochia plant response rating (0 to 100 scale) ([20]; 31 g ai/ha): 10; Kochia plant response rating (0 to 100 scale) ([20]; 125 g ai/ha): 70 |
| C#CCON=C(c1cccc(OCC(F)(F)F)c1)c1c(O)c(C)nn(C)c1=O [Compound 197] | 0 | 0 | 0 | 0 | 0 | 20 | 0 | 10 | 10 | 30 | 0 | 0 | 0 | 30 | 0 | 20 | 0 | 0 | 0 | 30 | Corn plant response rating (0 to 100 scale) ([13]; Postemergence, 31 g ai/ha): 0; Corn plant response rating (0 to 100 scale) [13, 21]: 0; Kochia plant response rating (0 to 100 scale) ([14]; Postemergence, 31 g ai/ha): 0; Kochia plant response rating (0 to 100 scale) [14, 21]: 0; Foxtail, Giant plant response rating (0 to 100 scale) ([15]; 31 g ai/ha): 0; Foxtail, Giant plant response rating (0 to 100 scale) ([15]; 125 g ai/ha): 10; Barnyardgrass plant response rating (0 to 100 scale) ([16]; 31 g ai/ha): 0; Barnyardgrass plant response rating (0 to 100 scale) ([16]; 125 g ai/ha): 0; Pigweed plant response rating (0 to 100 scale) ([17]; 31 g ai/ha): 0; Pigweed plant response rating (0 to 100 scale) ([17]; 125 g ai/ha): 20; Ragweed plant response rating (0 to 100 scale) ([18]; 31 g ai/ha): 0; Ragweed plant response rating (0 to 100 scale) ([18]; 125 g ai/ha): 0; Ryegrass, Italian plant response rating (0 to 100 scale) ([19]; 31 g ai/ha): 0; Ryegrass, Italian plant response rating (0 to 100 scale) ([19]; 125 g ai/ha): 20; Kochia plant response rating (0 to 100 scale) ([20]; 31 g ai/ha): 0; Kochia plant response rating (0 to 100 scale) ([20]; 125 g ai/ha): 0 |
| CON=C(c1cccc(OCC(F)(F)F)c1)c1c(O)c(C)nn(C)c1=O [Compound 198] | 0 | 0 | 0 | 0 | 20 | 70 | 20 | 80 | 0 | 10 | 0 | 0 | 0 | 40 | 0 | 60 | 0 | 0 | 0 | 20 | Corn plant response rating (0 to 100 scale) ([13]; Postemergence, 31 g ai/ha): 0; Corn plant response rating (0 to 100 scale) [13, 21]: 20; Kochia plant response rating (0 to 100 scale) ([14]; Postemergence, 31 g ai/ha): 0; Kochia plant response rating (0 to 100 scale) [14, 21]: 0; Foxtail, Giant plant response rating (0 to 100 scale) ([15]; 31 g ai/ha): 0; Foxtail, Giant plant response rating (0 to 100 scale) ([15]; 125 g ai/ha): 70; Barnyardgrass plant response rating (0 to 100 scale) ([16]; 31 g ai/ha): 0; Barnyardgrass plant response rating (0 to 100 scale) ([16]; 125 g ai/ha): 40; Pigweed plant response rating (0 to 100 scale) ([17]; 31 g ai/ha): 0; Pigweed plant response rating (0 to 100 scale) ([17]; 125 g ai/ha): 0; Ragweed plant response rating (0 to 100 scale) ([18]; 31 g ai/ha): 0; Ragweed plant response rating (0 to 100 scale) ([18]; 125 g ai/ha): 0; Ryegrass, Italian plant response rating (0 to 100 scale) ([19]; 31 g ai/ha): 0; Ryegrass, Italian plant response rating (0 to 100 scale) ([19]; 125 g ai/ha): 70; Kochia plant response rating (0 to 100 scale) ([20]; 31 g ai/ha): 0; Kochia plant response rating (0 to 100 scale) ([20]; 125 g ai/ha): 0 |
